Test results taken from US11793849B2, “Method of Chinese herbal medicine extract used for treating multiple diseases caused by drug resistant bacteria infection” (priority 2016, dated 2023).
Read-outs that look alike come from different tables or passages of the source.

Test system: MDRAB
Test: MIC determination, microdilution broth method
Format: cell-based, Acinetobacter baumannii
Conditions: Acinetobacter baumannii

Measured: MIC

Protocol: Determination methods of a Minimal Inhibitory Concentration (MIC) and a Minimum Bactericidal Concentration (MBC) of a test product: the MIC and the MBC of the Pithecellobium clypearia Benth water or ethanol extract to the MDRAB are determined by a microdilution broth method. And it is operated by referring to the microdilution broth method recommended by National Committee for Clinical Laboratory Standards (NCCLS).

C[C@H]1COc2c(N3CCN(C)CC3)c(F)cc3c(=O)c(C(=O)O)cn1c23 [LVX, Levofloxacin]
16 µg/mL: strain A2, EA=60% ethanol extract, read-out: MIC | strain A2, EA=95% ethanol extract, read-out: MIC | strain A2, EA=P. clypearia 95% ethanol extract, read-out: single-use MIC | strain A2, single use, EA=10% ethanol extract, read-out: MIC | strain A2, single use, EA=water extract, read-out: MIC | strain A3, EA=P. clypearia 95% ethanol extract, read-out: single-use MIC
4 µg/mL: strain A3, EA=60% ethanol extract, read-out: MIC | strain A3, EA=95% ethanol extract, read-out: MIC | strain A3, single use, EA=10% ethanol extract, read-out: MIC | strain A5, EA=60% ethanol extract, read-out: MIC | strain A5, EA=95% ethanol extract, read-out: MIC | strain A5, single use, EA=10% ethanol extract, read-out: MIC | strain A5, single use, EA=water extract, read-out: MIC | strain A8, EA=60% ethanol extract, read-out: MIC | strain A8, EA=95% ethanol extract, read-out: MIC | strain A8, EA=P. clypearia 95% ethanol extract, read-out: single-use MIC | strain A8, single use, EA=10% ethanol extract, read-out: MIC | strain A8, single use, EA=water extract, read-out: MIC | strain A9, EA=60% ethanol extract, read-out: MIC | strain A9, EA=95% ethanol extract, read-out: MIC | strain A9, EA=P. clypearia 95% ethanol extract, read-out: single-use MIC | strain A9, single use, EA=10% ethanol extract, read-out: MIC | strain A9, single use, EA=water extract, read-out: MIC | strain A11, EA=60% ethanol extract, read-out: MIC | strain A11, EA=95% ethanol extract, read-out: MIC | strain A11, EA=P. clypearia 95% ethanol extract, read-out: single-use MIC | strain A11, single use, EA=10% ethanol extract, read-out: MIC | strain A11, single use, EA=water extract, read-out: MIC
32 µg/mL: strain A10, EA=60% ethanol extract, read-out: MIC | strain A10, EA=95% ethanol extract, read-out: MIC | strain A10, EA=P. clypearia 95% ethanol extract, read-out: single-use MIC | strain A10, single use, EA=10% ethanol extract, read-out: MIC | strain A10, single use, EA=water extract, read-out: MIC | strain A12, EA=60% ethanol extract, read-out: MIC | strain A12, EA=95% ethanol extract, read-out: MIC | strain A12, EA=P. clypearia 95% ethanol extract, read-out: single-use MIC | strain A12, single use, EA=10% ethanol extract, read-out: MIC
8 µg/mL: strain A6, EA=60% ethanol extract, read-out: MIC | strain A6, EA=95% ethanol extract, read-out: MIC | strain A6, EA=P. clypearia 95% ethanol extract, read-out: single-use MIC | strain A6, single use, EA=10% ethanol extract, read-out: MIC | strain A6, single use, EA=water extract, read-out: MIC | strain A7, EA=60% ethanol extract, read-out: MIC | strain A7, EA=95% ethanol extract, read-out: MIC | strain A7, EA=P. clypearia 95% ethanol extract, read-out: single-use MIC | strain A7, single use, EA=10% ethanol extract, read-out: MIC | strain A7, single use, EA=water extract, read-out: MIC
0.5 µg/mL: strain A1, EA=60% ethanol extract, read-out: MIC | strain A1, EA=95% ethanol extract, read-out: MIC | strain A1, EA=P. clypearia 95% ethanol extract, read-out: single-use MIC | strain A1, single use, EA=10% ethanol extract, read-out: MIC | strain A1, single use, EA=water extract, read-out: MIC | strain A4, EA=60% ethanol extract, read-out: MIC | strain A4, EA=95% ethanol extract, read-out: MIC | strain A4, EA=P. clypearia 95% ethanol extract, read-out: single-use MIC | strain A4, single use, EA=10% ethanol extract, read-out: MIC | strain A4, single use, EA=water extract, read-out: MIC
